# From patent US20190202719A1, “METHOD FOR CONTROLLING MOLLUSK POPULATIONS” (priority 2016, published 2019)
# Read-outs that look alike come from different tables or passages of the source.
# Legend:
# adult dreissenid mussels [1] = conditions: pH about 4, warm water, after 72 hours
# adult dreissenid mussels [2] = assay: Effective pH range determination, adult mussel mortality in pH-adjusted raw lake water
# Experimental: To find an optimal pH range at which lactic acid effectively killed adult dreissenid mussels, raw lake water was placed in 4 L water containers and aerated. The pH was adjusted in three containers to about 2.8, 4, and 6, respectively, using lactic acid. The initial water parameters (temperature 20° C., pH 7.6, dissolved oxygen (DO) 7.73, Alkalinity 90 mg/l) were monitored. A fourth container, with no pH adjustment was used for control. Twenty adult mussels of various sizes were placed in each of the three containers. […] Mortality was defined as a gaping shell with the adult mussel not responding to gentle prodding of the flesh.
# The experiment was repeated with the pH adjusted to about 5.
# [3] = test system: veligers of quagga mussels; assay: Efficiency in killing mollusk veligers, beaker exposure; conditions: approximately 20° C.
# Experimental: Further testing was conducted specifically on veligers of quagga mussels collected from Lake Mead and utilizing citric acid and L-lactic acid. Trials were conducted using 2 replicate beakers per test interval at approximately 20° C. Test beakers (100 mL) were seeded with at least 200 veligers per replicate in 10 mL of veliger concentrate and filtered lake water and then dosed with 90 mL of prepared acid concentrate for each of the tested concentrations of lactic acid or citric acid. Stock acid solutions were measured by weight and added to filtered lake water to make the total volume needed. Controls were run concurrently with treatments and used filtered lake water instead of acid to add into the beaker. Exposure times included 1, 5, and 15 minutes, and 1 and 24 hours to assess mortality for the different concentrations of acids.
# The exposure times were 5 minutes, 15 minutes, one hour, and 24 hours.
# In the second test, the final concentrations of citric acid and L-lactic acid were 1% and 2% by weight for each acid. The exposure times were one minute and 5 minutes.
SMILES,mortality (adult dreissenid mussels [1]),"mortality (adult dreissenid mussels [2]; in vivo, pH 4) [%]","shell condition (adult dreissenid mussels [2]; pH 2.8, after 48 hours)","mortality (adult dreissenid mussels [2]; pH of 6, after 48 hours)","veliger mortality ([3]; 0.6% by weight, one hour exposure) [%]","veliger mortality ([3]; 2% by weight, five minute exposure) [%]"
CC(O)C(=O)O (stereo not drawn) [lactic acid],complete mortality,100,shells were disintegrating,no mortality,–,–
C[C@H](O)C(=O)O [L-lactic acid],–,–,–,–,99,86
